# Results taken from publication PMC7978378, “Discovery of novel dual adenosine A1/A2A receptor antagonists using deep learning, pharmacophore modeling and molecular docking” (PLoS Computational Biology, 2021).
# Columns and labels:
# [1] = test system: animal models of PD; set-up: method as in PMID 20973483; conditions: oral administration; cited from earlier work
# [2] = set-up: method as in PMID 20973483; conditions: further studies; cited from earlier work
# [3] = target: A1 receptor; conditions: cited from earlier work
# [4] = target: A2A receptor; conditions: cited from earlier work
# [5] = target: A1AR; set-up: method as in ChEMBL25 [53]; conditions: S1 Table training set; ref ChEMBL25 [53]; read-out: Ki (nM) A1; cited from earlier work
# [6] = target: A2AAR; set-up: method as in ChEMBL25 [53]; conditions: S1 Table training set; ref ChEMBL25 [53]; read-out: Ki (nM) A2A; cited from earlier work
# [7] = target: T1, A1AR (Homo sapiens, UniProt P30542); assay: cAMP functional assay, CHO-A1 cells; format: cell-based; set-up: host or cells: CHO-A1 cells; conditions: antagonism of NECA effect on cAMP, 5.08 × 10^−3 to 100 μM, read-out: cAMP assays (pIC50) A1 (converted)
# T1 sequence (P30542 1-326): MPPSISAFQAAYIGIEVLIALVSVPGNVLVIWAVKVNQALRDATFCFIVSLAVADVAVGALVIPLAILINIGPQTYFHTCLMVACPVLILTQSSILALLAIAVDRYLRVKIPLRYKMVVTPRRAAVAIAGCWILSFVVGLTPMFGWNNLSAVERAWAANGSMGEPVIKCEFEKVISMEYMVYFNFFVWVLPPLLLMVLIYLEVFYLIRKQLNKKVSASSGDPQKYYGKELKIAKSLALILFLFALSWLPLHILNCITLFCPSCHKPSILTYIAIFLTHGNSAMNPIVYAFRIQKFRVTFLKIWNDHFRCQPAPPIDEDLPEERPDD
# [8] = target: T1, A1AR; assay: biochemical
# [9] = target: T2, A2AAR (Homo sapiens, UniProt P29274); assay: Radioligand binding assay ([3H]ZM241385); conditions: [3H]ZM241385 0.5 nM, 90 min at 27°C, Cheng-Prusoff; read-out: Binding affinities (pKi) A2A (converted)
# [10] = target: T2, A2AAR; assay: cAMP functional assay, HEK293-A2A cells; format: cell-based; set-up: host or cells: HEK293-A2A cells; conditions: antagonism of NECA effect on cAMP, 5.08 × 10^−3 to 100 μM, read-out: cAMP assays (pIC50) A2A (converted)
# [11] = target: A1/A2A ARs; assay: Radioligand binding assays, summarised over both receptors; set-up: species or system human; conditions: range over A1AR and A2AAR radioligand binding assays
# [12] = test system: A1/A2A ARs; assay: cAMP functional assay, summarised over both receptors; conditions: range over A1AR and A2AAR cAMP assays
# [13] = test system: rodents; conditions: forced swim test and tail suspension test in rodents; cited from earlier work
# T2 sequence (P29274 whole entry): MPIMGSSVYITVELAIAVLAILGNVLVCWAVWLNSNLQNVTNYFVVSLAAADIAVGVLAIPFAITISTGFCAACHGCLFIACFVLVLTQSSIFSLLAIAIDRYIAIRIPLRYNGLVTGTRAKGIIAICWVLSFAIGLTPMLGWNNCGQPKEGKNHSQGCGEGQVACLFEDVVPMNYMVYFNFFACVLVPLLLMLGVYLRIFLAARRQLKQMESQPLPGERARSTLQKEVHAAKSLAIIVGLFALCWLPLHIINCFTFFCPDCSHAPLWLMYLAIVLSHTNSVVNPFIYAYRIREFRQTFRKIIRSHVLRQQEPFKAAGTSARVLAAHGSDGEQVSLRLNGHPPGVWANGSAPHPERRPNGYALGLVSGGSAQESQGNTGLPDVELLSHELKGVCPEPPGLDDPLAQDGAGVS
SMILES,Ki [5] [nM],Ki [6] [nM],IC50 [7] [nM],other results
"Nc1nc(-c2ccccc2)c2c(n1)-c1cc(CN3CCCC3)ccc1C2=O [2-amino-4-phenyl-8-(pyrrolidin-1-ylmethyl)-5H-indeno[1,2-d]pyrimidin-5-one]",,,,activity in animal models of PD [1]: excellent activity; genotoxicity [2]: genotoxic
Cc1ccc(-c2cc(-c3cccc(C(=O)N4CCCCC4)c3)nc(N)n2)o1 [4-(5-methylfuran-2-yl)-6-[3-(piperidine-1-carbonyl)phenyl]pyrimidin-2-amine],,,,Ki [3]: 9.54 nM; Ki [4]: 6.34 nM
N#Cc1c(N)nc(SCc2ncc[nH]2)c(C#N)c1-c1ccc(O)cc1 [CHEMBL122622],2.6,28,,
COc1ccc(NC(=O)Nc2nc3ccc(Cl)cc3c3nc(-c4ccco4)nn23)cc1 [CHEMBL144979],7.6,9.4,,
CCCCCc1nc(N)c2nc(-n3nccn3)n(C)c2n1 [CHEMBL196258],26.2,,,
Nc1nc(C#C[C@@H](O)c2ccccc2)nc2c1ncn2[C@@H]1O[C@H](CO)[C@@H](O)[C@H]1O [CHEMBL262363],0.67,1.8,,
OC[C@H]1O[C@@H](n2cnc3c(NC4CCCC4)nc(Cl)nc32)[C@H](O)[C@@H]1O [CHEMBL284969],,17,,
CC(=O)Nc1cc(-n2cccn2)nc(-c2ccco2)n1 [CHEMBL401321],9.45,0.6,,
Cc1ccc(-c2nc(N)nc3c2nnn3Cc2ccccc2F)o1 [CHEMBL461857],19,2.1,,
CC(=O)Nc1cc(-c2cccc(N3CCCC3)n2)nc(-n2nc(C)cc2C)n1 [CHEMBL485765],7.2,0.26,,
O=C(NC1CC1)[C@H]1S[C@@H](n2cnc3c(NCc4cccc(I)c4)ncnc32)[C@H](O)[C@@H]1O [CHEMBL596014],,15.2,,
Nc1nc(-c2ccccc2)c2c(n1)-c1cc(N3CCOCC3)ccc1C2=O [CHEMBL1095822],32.4,2.9,,
CCn1c(/N=C/c2ccc(F)cc2)c(C#N)sc1=S [CHEMBL2419148],,11,,
CN(C)CCOc1ccc(-c2nc3c([nH]2)c(=O)n(C)c(=O)n3C)cc1 [CHEMBL3121720],1.82,0.4,,
CCCCNC(=O)CCn1nc(-c2ccccc2)c2ccccc2c1=O [Compound C1],,,> 100000,
O=C(COc1ccccc1)Nc1c(C(=O)Nc2cccc(F)c2)oc2ccccc12 [Compound C2],,,> 100000,
O=C(CCCn1c2ccccc2c2cn[nH]c(=O)c21)NCc1cccs1 [Compound C3],,,> 100000,
O=C(c1ccco1)n1nc(-c2ccco2)nc1NCc1ccccc1 [Compound C4],,,3090,Ki [8]: 2090 nM; Ki [9]: 19500 nM; IC50 [10]: > 100000 nM
Cc1ccccc1-c1nc(N)n(C(=O)Cc2ccccc2)n1 [Compound C7],,,1910,Ki [8]: 1050 nM; Ki [9]: 5750 nM; IC50 [10]: > 100000 nM
Nc1nc(-c2ccccc2Cl)nn1C(=O)c1cccc(Cl)c1 [Compound C9],,,191,pKi for A1/A2A ARs [11]: 7.16–7.49; Ki [8]: 32.4 nM; Ki [9]: 69.2 nM; IC50 [10]: 490 nM; pIC50 towards A1/A2A ARs [12]: 6.31–6.78
CCCNc1cc(C)nc2c(C)c(-c3ccc(C)cc3)nn12 [Compound C10],,,347,Ki [8]: 170 nM; Ki [9]: 8320 nM; IC50 [10]: 10000 nM
Cn1c(=O)c2c(-c3cccc(Cl)c3)c(Nc3ccccc3)oc2n(C)c1=O [Compound C11],,,> 100000,
O=C(Cc1csc(NC(=O)c2ccc3c(c2)OCO3)n1)NCCCc1ccccc1 [Compound C13],,,> 100000,
Cc1cccc(NC(=O)Cc2csc(NC(=O)c3ccc4c(c3)OCO4)n2)c1 [Compound C14],,,> 100000,
CC(=O)c1cccc(NC(=O)Nc2cc3c(cc2Oc2ccccc2)n(C)c(=O)n3C)c1 [Compound C15],,,4470,Ki [8]: 2880 nM; Ki [9]: > 100000 nM; IC50 [10]: 7940 nM; pIC50 towards A1/A2A ARs [12]: 5.10–5.35
CCCn1ccc2c(OCC(=O)Nc3ccc(OCC)cc3)cccc2c1=O [Compound C16],,,> 100000,
CCn1cnc2c(-c3ccccc3)cn(CC(=O)Nc3cccc(F)c3)c2c1=O [Compound C17],,,631,Ki [8]: 525 nM; Ki [9]: > 100000 nM; IC50 [10]: 63100 nM
O=C(Cn1c(=O)n(-c2ccccc2)c2ncccc21)NCc1cccc(F)c1 [Compound C18],,,> 100000,
Cc1ccc(-c2c(C(=O)NCc3ccncc3)nc3ccccn23)cc1 [Compound C19],,,52500,Ki [8]: 10700 nM; Ki [9]: 11700 nM; IC50 [10]: > 100000 nM
CCn1c(=O)c2c(nc(/C=C/c3ccc(OC)c(OC)c3)n2C)n(CC)c1=O [KW-6002],,,,antidepressant activity [13]: antidepressant activity
